pKd: −log10 of the molar value. Several values for one entry are separate records, joined by “and”; a condition that tells them apart may be missing. Equal entries are not always repeated. Bridges are numbered along the chain shown (N, C = ends). Where no end group is shown, it is not given here. [ ]: non-standard residue; d: D form. Lys(N3) = [N-]=[N+]=NCCCC[C@H](N)C(=O)O
Key:
FMC63-mCAR-T cells [1] = experiment: IFN-γ ELISA, FMC63-mCAR-T co-cultured with amph-mimotope-labeled K562 cells (Fig 5B); type: cell-based, mouse
CD19-CAR Jurkat T cells = experiment: CD69 expression on mimotope-pre-incubated CD19-CAR Jurkat T cells co-cultured with NALM6 (Fig 4F); type: cell-based, human; details: 1:1 E:T, 16 hours
FMC63^scFv [2] = experiment: Retention of prebound biotin-FMC63 scFv on yeast clones under competition with FMC63 IgG (Fig 3I); type: binding; details: pre-stained with 50nM Biotin-FMC63^scFv, then 1μM FMC63^IgG
[3] = system: FMC63^IgG binding to CD19^+ NALM6 cells; experiment: FMC63 IgG staining of NALM6 cells in the presence of mimotope (Fig 4E); set-up: species or system human
[4] = system: FMC63^scFv binding to CD19^+ NALM6 cells; experiment: FMC63 scFv staining of NALM6 cells after pre-incubation with mimotope (Fig 4E); set-up: species or system human; details: scFv pre-blocked with mimotope
[5] = Clinical data, adult B-cell lymphoma: peak CAR-T expansion by qPCR (EDF2B); type: in vivo, human; details: relapsed/refractory B-NHL
[6] = Clinical data, pediatric B-ALL: CAR-T expansion by qPCR and B cell aplasia (Fig 1A-D); type: in vivo, human; details: for probability of continued B-cell aplasia: at 6 months
[7] = Clinical data, adult B-ALL: peak CAR-T expansion by qPCR (EDF2A); type: in vivo, human; details: adult relapsed/refractory ALL
CD19 CAR-T cells = experiment: IFN-γ ELISA, human CD19 CAR-T co-cultured with amph-mimotope-labeled K562 cells (Fig 2H); type: cell-based; details: 6 hr
FMC63^scFv [8] = experiment: FMC63 scFv binding to K562 cells labeled with amph-mimotopes (Fig 3J); details: read-out: Kd^scFv (apparent); K562 labeled with 500 nM amph-mimotope, fluorescent FMC63^scFv, flow cytometry
Target sequence in this assay (as listed by the source): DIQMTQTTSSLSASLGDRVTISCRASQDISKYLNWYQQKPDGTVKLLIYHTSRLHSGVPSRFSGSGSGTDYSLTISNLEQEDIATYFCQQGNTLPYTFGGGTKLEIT
Target sequence in this assay (as listed by the source): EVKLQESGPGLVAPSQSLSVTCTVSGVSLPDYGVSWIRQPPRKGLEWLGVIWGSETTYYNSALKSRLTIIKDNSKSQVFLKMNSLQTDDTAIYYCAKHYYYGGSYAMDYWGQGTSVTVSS

EGFRvIII-CAR-T cells = experiment: IFN-γ ELISA, control EGFRvIII-CAR-T co-cultured with amph-labeled K562 cells (Fig 2I); type: cell-based
FMC63-mCAR-T cells [9] = experiment: CTV dilution of FMC63-mCAR-T cells in LNs after amph-mimotope vaccination (Fig 5D); type: in vivo, C57BL/6 mice; details: 10 nmol amph-peptide + 25μg CDG, 48 hours after vaccination, n=3
FMC63^IgG [10] = experiment: ELISA of FMC63 IgG binding to plate-bound synthetic mimotopes (Fig 2F, 3F); details: peptide pre-treated with DTT
FMC63^IgG [11] = experiment: Flow cytometry of FMC63 IgG binding to mimotope yeast clones (Fig 2E, 3B, 3D, 3E)
Target sequence in this assay (as listed by the source): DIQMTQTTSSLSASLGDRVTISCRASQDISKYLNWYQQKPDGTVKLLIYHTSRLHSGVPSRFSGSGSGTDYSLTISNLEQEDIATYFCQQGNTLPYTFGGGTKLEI

[12] = system: primary mouse B cells (mouse CD19); experiment: FMC63 IgG binding to primary mouse B cells by flow cytometry (EDF7D)

With “amph-mimotopeF12 ({DSPE‑PEG2k‑DBCO}-[Lys(N3)]RICPWNCKEL; disulfide 4-8 (inferred))” the “IFN-γ secretion, FMC63-mCAR-T with amph-labelled K562 (Fig 5B)” value (from here on “IFN-γ secretion, FMC63-mCAR-T”) (FMC63-mCAR-T cells [1]; replicate 1) was 739.091, the “IFN-γ secretion, FMC63-mCAR-T” value (FMC63-mCAR-T cells [1]; replicate 2) was 671.636 and the “IFN-γ secretion, FMC63-mCAR-T” value (FMC63-mCAR-T cells [1]; replicate 3) was 771.636.

For “PRKHSGRICPWNCKELDNPPFIFGNR (disulfide) [F12-A1]”, the “CD69 induction on FMC63 CAR Jurkat cells stimulated with NALM6 after pre-blocking with mimotope” value (CD19-CAR Jurkat T cells) was “not affected”, the “time FMC63^scFv remained bound on yeast surface in the presence of excess soluble FMC63^IgG” value (FMC63^scFv [2]) was “over 24 hours” and the “mimotope concentration at which FMC63^IgG binding to CD19 is abolished” value [3] was greater than 10 µM. For the same substance, the “mimotope concentration at which FMC63^scFv binding to NALM6 cells is compromised / abolished” value [4] was “greater than 1 μM”.

For tisagenlecleucel, the CAR-T19 expansion ([5]; high disease burden (n=7)) was 35,857 CAR19 copies/μg of DNA, the CAR-T19 expansion ([5]; low tumor burden (n=30)) was 18,718 CAR19 copies/μg of DNA and the “median time to peak CAR-T expansion” value ([6]; after infusion, both cohorts (high ≥40%, n=40; low <40%, n=90), qPCR) was 10 days. For the same substance, the “probability of continued B-cell aplasia” value ([6]; high tumor burden patients, 95% CI 55–95) was 72%, the “probability of continued B-cell aplasia” value ([6]; low tumor burden patients, 95% CI 57–78) was 67% and the peak of expansion ([7]; high tumor burden (n=23)) was 77,109 CAR19 copies/μg of DNA. For the same substance, the peak of expansion ([7]; low tumor burden (n=6)) was 25,064 CAR19 copies/μg of DNA.

For “amph-P1: P1 with N-terminal azide conjugated to DSPE-PEG2k-DBCO ({DSPE‑PEG2k‑DBCO}-[Lys(N3)]RHCPWNCSLL; not fully specified; cysteine pairing not given here)”, the “IFN-γ by ELISA” value (CD19 CAR-T cells; CD19^− K562 labeled with 100 nM amph-P1, CD19 CAR-T 5:1 E:T, triplicate samples) was 79.6185 and 80.063 and 79.9889, the “IFN-γ secretion from CD19 CAR-T cells (in words)” value (CD19 CAR-T cells; K562 labeled with 100 nM amph-P1, 5:1 E:T) was “effectively triggered IFN-γ secretion from CD19 CAR-T cells but to a much lesser extent than NALM6 cells” and the pKd (FMC63^scFv [8]) was less than 6.00. The “stimulation of control EGFRvIII CAR-T cells (in words)” value (EGFRvIII-CAR-T cells; K562 labeled with 100 nM amph-ligand, 5:1 E:T, 6 hours, IFN-γ ELISA) was “failed to stimulate”, the “IFN-γ secretion, EGFRvIII-CAR-T with amph-labelled K562 (Fig 2I)” value (“IFN-γ secretion, EGFRvIII-CAR-T” below) (EGFRvIII-CAR-T cells; replicate 1) was 128 and the “IFN-γ secretion, EGFRvIII-CAR-T” value (EGFRvIII-CAR-T cells; replicate 2) was 153. For the same substance, the “IFN-γ secretion, EGFRvIII-CAR-T” value (EGFRvIII-CAR-T cells; replicate 3) was 104 and the “CAR-T cell proliferation (CTV dilution) in LNs (in words)” value (FMC63-mCAR-T cells [9]) was “no CAR-T cell proliferation”.

For “amph-F12: amphiphile (DSPE-PEG2k) conjugate of F12 ({DSPE‑PEG2k‑DBCO-azido lysine}-RICPWNCKEL; disulfide 3-7 (inferred))”, the “CAR-T cell proliferation (CTV dilution) in LNs (in words)” value (FMC63-mCAR-T cells [9]) was “limited proliferation”.

In the case of RHCPWNCSLL (disulfide) [P1], the “FMC63^IgG binding to DTT-treated peptide” value (FMC63^IgG [10]) was “completely ablated”, the “binding of yeast clone at 20 nM biotinylated FMC63^IgG” value (FMC63^IgG [11]; flow cytometry) was “no detectable binding” and the “FMC63^IgG binding to yeast clone under mild reductive conditions” value (FMC63^IgG [11]; yeast treated with 0.1mM, 1mM DTT, 500 nM biotin-FMC63^IgG) was “eliminated FMC63^IgG binding”.

In the case of “FMC63 IgG: recombinant FMC63 (anti-human CD19) expressed as a full-length IgG”, the “binding to WT B cells expressing mouse CD19 (in words)” value [12] was “minimal binding”.

Reference: paper PMC13099375 (Nature biomedical engineering, 2025)
